From PubChem BioAssay (NCI)
Several values for one entry are separate records, joined by “and”; a condition that tells them apart may be missing. Identical values can stand only once.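 Compound exposure: 48 hours, 5 concentrations, 96-well plates. GI50 is the concentration that inhibits growth by half. TGI: total growth inhibition.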 Where a SMILES comes first, the peptide text is derived from it. [ ]: non-standard residue; d: D form. The star is where a group is joined. ξ: configuration not given here. dIva = CC[C@@](C)(N)C(=O)O; Aib = CC(C)(N)C(=O)O; ξP = O=C(O)C1CCCN1; βAla = NCCC(=O)O; X5 = OCN*

Experiments:
Assay in all cases: DTP human tumour cell line panel, 48 h
SK-MEL-5 melanoma = tested on: SK-MEL-5 melanoma
SW-620 colon = tested on: SW-620 colon
IGROV1 ovarian = tested on: IGROV1 ovarian
COLO 205 colon = tested on: COLO 205 colon
UACC-62 melanoma = tested on: UACC-62 melanoma
RPMI-8226 leukemia = tested on: RPMI-8226 leukemia
A549 NSCLC = tested on: A549 NSCLC
OVCAR-5 ovarian = tested on: OVCAR-5 ovarian
MALME-3M melanoma = tested on: MALME-3M melanoma
SNB-19 CNS = tested on: SNB-19 CNS

| Structure (SMILES) | GI50 (SK-MEL-5 melanoma) | TGI (SK-MEL-5 melanoma) | GI50 (SW-620 colon) | TGI (SW-620 colon) | GI50 (IGROV1 ovarian) | TGI (IGROV1 ovarian) | GI50 (COLO 205 colon) | TGI (COLO 205 colon) | GI50 (UACC-62 melanoma) | TGI (UACC-62 melanoma) | GI50 (RPMI-8226 leukemia) | TGI (RPMI-8226 leukemia) | GI50 (A549 NSCLC) | TGI (A549 NSCLC) | GI50 (OVCAR-5 ovarian) | TGI (OVCAR-5 ovarian) | GI50 (MALME-3M melanoma) | TGI (MALME-3M melanoma) | GI50 (SNB-19 CNS) | TGI (SNB-19 CNS) |
| --- | --- | --- | --- | --- | --- | --- | --- | --- | --- | --- | --- | --- | --- | --- | --- | --- | --- | --- | --- | --- |
| O=C(CN1CCN(c2ccccn2)CC1)Nc1ccc(Cl)cc1C(=O)c1ccccc1Cl | 10.2 µM | 38.3 µM | > 100 µM | > 100 µM | 89.2 µM | > 100 µM | > 100 µM | > 100 µM | 12.8 µM | > 100 µM | 4.64 µM | > 100 µM | 14.3 µM | > 100 µM | > 100 µM | > 100 µM | > 100 µM | > 100 µM | 79.6 µM | > 100 µM |
| Nc1ncnc2c1ncn2C1OC(C(=O)OCCO)C(O)C1O (stereo unspecified) | – | > 100 µM | – | > 100 µM | – | > 100 µM | – | > 100 µM | – | > 100 µM | – | > 100 µM | – | > 100 µM | – | > 100 µM | – | > 100 µM | – | > 100 µM |
| NS(=O)(=O)c1ccc(N=Nc2c(=O)[nH]c3ccc4[nH]cccc4c23)cc1 | 0.256 µM | 4.69 µM | 0.356 µM | > 7.23 µM | 0.789 µM | > 25 µM | 0.376 µM | 0.913 µM | 0.487 µM | 1.62 µM | 1.97 µM | 14.2 µM | 1.89 µM | > 25 µM | 1.02 µM | > 25 µM | 1.05 µM | 3.05 µM | 0.428 µM | > 25 µM |
| OCC(O)C(OC1OC(CO)C(O)C(O)C1O)c1nn(-c2ccc(Cl)cc2)c2nc3cc(Cl)ccc3nc12 (stereo unspecified) | – | – | – | – | – | – | – | – | – | > 100 µM | – | > 100 µM | – | – | – | > 100 µM | – | > 100 µM | – | > 100 µM |
| O=C(Nc1ccc(N2CCNCC2)cn1)c1[nH]ncc1Nc1ncnc2sc3c(c12)CCC3 | – | – | 0.476 µM | 2.05 µM | – | – | 2.11 µM | 6.97 µM | 1.98 µM | 4.2 µM | 1.94 µM | 5.82 µM | 1.67 µM | 3.5 µM | – | – | – | – | – | – |
| Cc1ccc(SSCCCCS(=O)O)cc1 | – | 25.6 µM | – | 38.5 µM | – | 18.8 µM | – | 39.7 µM | – | 42.6 µM | – | – | – | 70.6 µM | – | 96.3 µM | – | 69.7 µM | – | > 100 µM |
| CCOc1ccccc1NC(=O)C(=O)c1c(O)c2ccc(O)cc2oc1=O | – | > 100 µM | – | > 100 µM | – | > 100 µM | – | > 100 µM | – | > 100 µM | – | – | – | > 100 µM | – | > 100 µM | – | > 100 µM | – | > 100 µM |
| NC(=S)N=Nc1c(O)[nH]c2ccccc12 | 55.5 µM and 201 µM | 651 µM | 474 µM | > 1000 µM | 66.7 µM and 162 µM | 477 µM | – | > 1000 µM | 209 µM | 497 µM | 194 µM | 708 µM | 274 µM | 897 µM | – | – | 310 µM | 753 µM | 262 µM | 722 µM |
| O=C1OC(=O)C2C1C1C(c3ccccc3)=C(c3ccccc3)C2(O)C2C(=O)OC(=O)C12 (stereo unspecified) | – | – | – | > 100 µM | – | > 100 µM | – | > 100 µM | – | > 100 µM | – | > 100 µM | – | > 100 µM | – | > 100 µM | – | > 100 µM | – | > 100 µM |
| CC(C)CC1NC(=O)C(C(C)C)NC(=O)CC(C)COC(=O)C(CC(C)C)N(C)C(=O)C(C(C)C)NC(=O)C(C(C)C)OC1=O (stereo unspecified) | – | > 50 µM | – | > 50 µM | – | > 50 µM | – | > 50 µM | – | > 50 µM | – | – | – | > 50 µM | – | > 50 µM | – | > 50 µM | – | > 50 µM |
| N#CC1C(=O)NC(=O)C(C#N)C1c1ccc(Cl)c(Cl)c1 (stereo unspecified) | – | 48.3 µM | – | 36.8 µM | – | 47.3 µM | – | > 100 µM | – | – | – | – | – | > 100 µM | – | 68.6 µM | – | > 100 µM | – | > 100 µM |
| COn1cc(C(=O)N=C(SC)SC)c2ccccc21 | 15.7 µM | 34.4 µM | 34.8 µM | > 100 µM | 11.8 µM | 55.5 µM | 30.2 µM | > 100 µM | 20.2 µM | 55.8 µM | 17.9 µM | > 100 µM | 23.9 µM | 87.6 µM | 26.2 µM | 73.7 µM | – | – | 40.2 µM | > 100 µM |
| CCCCCCCCCCCCCCCC(N)c1ccccc1 (stereo unspecified) | 1.67 µM | 3.23 µM | 1.61 µM | 3.19 µM | 1.78 µM | 3.44 µM | 1.68 µM | 3.14 µM | 1.66 µM | 3.21 µM | 2.09 µM | 4.66 µM | 1.78 µM | 3.56 µM | 1.49 µM | 3.1 µM | 1.6 µM | 3.28 µM | – | – |
| Nc1nc(N)c(-c2ccc(Cl)cc2)c(/C=C/c2ccc([N+](=O)[O-])cc2)n1 | 3.83 µM | > 100 µM | 4.08 µM | > 100 µM | 5.35 µM | 52.9 µM | 6.01 µM | > 100 µM | – | – | 5.8 µM | > 100 µM | 3.1 µM | 47.8 µM | 38.2 µM | > 100 µM | – | – | 16.1 µM | > 100 µM |
| CC1CCC2[C@@H](C)COC3O[C@]4(C)CCC1C32OO4 (stereo partly specified) | – | > 100 µM | – | > 100 µM | – | > 100 µM | – | > 100 µM | – | > 100 µM | – | – | – | > 100 µM | – | > 100 µM | – | > 100 µM | – | > 100 µM |
| C/C(=N\NS(=O)(=O)c1ccccc1)c1ccc[n+]([O-])n1 | – | > 100 µM | – | > 100 µM | – | > 100 µM | – | – | – | > 100 µM | – | > 100 µM | – | > 100 µM | – | > 100 µM | – | – | – | > 100 µM |
| COc1ccc2c(c1)C(=O)c1c-2n(CCCNCCO)c(=O)c2cc([N+](=O)[O-])ccc12 | < 0.01 µM | < 0.0251 µM | < 0.01 µM | 1.14 µM | 0.0283 µM | 1.81 µM | 0.018 µM | 2.01 µM | – | – | < 0.01 µM | 0.0469 µM | – | – | < 0.0128 µM | 0.239 µM | – | – | < 0.01 µM | 19.9 µM |
| O=S1(=O)C=C(c2ccccc2)C(c2ccccc2)=C1 | 1.57 µM | 2.9 µM | 1.07 µM | 2.39 µM | – | – | 1.77 µM | 3.61 µM | 1.73 µM | 3.64 µM | 3.3 µM | 7.92 µM | 2.13 µM | 5.11 µM | 1.69 µM | 3.14 µM | 1.93 µM | 4.72 µM | 1.98 µM | 4.63 µM |
| Cc1c(C(=O)Nc2ccc(Cl)cc2)nc(N)nc1-c1cccc(Cl)c1 | – | > 100 µM | – | > 100 µM | – | > 100 µM | – | > 100 µM | – | > 100 µM | – | – | – | > 100 µM | – | > 100 µM | – | > 100 µM | – | > 100 µM |
| CC[C@@](C)(NC(=O)[C@H](C)NC(=O)CCNC(=O)C(C)(C)NC(=O)[C@H](C)NC(=O)[C@@H]1CCCN1C(=O)[C@@](C)(CC)NC(=O)[C@H](Cc1ccccc1)NC(=O)C1CCCN1C(=O)C(C)(C)NC(=O)C1CCCN1C(=O)C(C)(C)NC(C)=O)C(=O)NCCC(=O)N[C@@H](CC(C)C)C(=O)NC(C)(C)C(=O)NCCC(=O)N[C@@H](CC(C)C)C(=O)NC(C)(C)C(=O)NC(C)(C)C(=O)N[C@@H](CC(C)C)C(=O)NCCC(=O)NCO (stereo partly specified) (Ac-[Aib][ξP][Aib][ξP]F[dIva]PA[Aib][βAla]A[dIva][βAla]L[Aib][βAla]L[Aib][Aib]L[βAla]-X5) | 0.0991 µM | 0.302 µM | 0.149 µM | 0.403 µM | – | – | 0.0681 µM | 0.248 µM | 0.258 µM | 0.503 µM | – | – | 0.133 µM | 0.351 µM | 0.197 µM | 0.422 µM | 0.0595 µM | 0.256 µM | 0.0952 µM | 0.304 µM |
| CCC12C=CCN3CCC4(C(=C(C(=O)OC)C1)Nc1ccccc14)[C@H]32 (stereo partly specified) | – | > 100 µM | – | 86 µM | – | > 100 µM | – | 32.3 µM | – | 67.6 µM | – | – | – | > 100 µM | – | > 100 µM | – | > 100 µM | – | 75 µM |
| C=C1CC(CC(=O)C(C)CC2CC(=C)C(=O)O2)OC1=O (stereo unspecified) | – | > 100 µM | – | 24.2 µM | – | > 100 µM | – | 27.1 µM | – | 30.1 µM | – | – | – | > 100 µM | – | > 100 µM | – | 28.4 µM | – | > 100 µM |
| COc1ccc(S(=O)(=O)N/N=C/CN2C(=O)c3ccccc3C2=O)cc1 | – | > 100 µM | – | > 100 µM | – | > 100 µM | – | > 100 µM | – | > 100 µM | – | > 100 µM | – | > 100 µM | – | – | – | > 100 µM | – | > 100 µM |
| COc1ccc(OC)c(/C=C/C(=O)c2ccc3cc(OC)ccc3c2)c1 | 6.4 µM | > 24.3 µM | – | > 50 µM | – | > 14.5 µM | 6.81 µM | > 14.8 µM | 5.52 µM | > 12.2 µM | 4.53 µM | > 37.8 µM | 9.52 µM | > 32.4 µM | > 11.6 µM | > 50 µM | – | – | – | > 17.2 µM |
| CCN(CC)c1ccc(N=C2C=CC(=C(C#N)C#N)c3ccccc32)c(C)c1 | – | 2.92 µM | – | – | – | 8.86 µM | – | 8.05 µM | – | 3.43 µM | – | 15.2 µM | – | 5.33 µM | – | – | – | 4.51 µM | – | 13.1 µM |
| Cc1ccc(NC(=O)CC2C(=O)Nc3ccccc3S2(=O)=O)cc1C (stereo unspecified) | – | > 100 µM | – | > 100 µM | – | > 100 µM | – | – | – | > 100 µM | – | > 100 µM | – | > 100 µM | – | > 100 µM | – | > 100 µM | – | > 100 µM |
